According to patent publication US4626505A, “Selectable markers for yeast transformation” (E. I. Du Pont de Nemours and Company, priority 1984, dated 1986):

Tested on: industrial S. cerevisiae strains ATCC 7754 and ATCC 4921
Experiment: Growth/resistance of industrial yeast strains, untransformed and transformed with pCP2-4-10
Assay type: cell-based, Saccharomyces cerevisiae
Conditions: for resistance of industrial transformants to structurally related sulfonylurea growth inhibitors: ATCC 7754 and ATCC 4921 transformed with pCP2-4-10
Description: […]. […] The optimum period of incubation with glusulase for producing spheroplasts was determined to be approximately 3 hours.
The resulting industrial transformants were resistant to other, structurally related sulfonylurea growth inhibitors in addition to sulfometuron methyl. These inhibitors included N-[(4-methoxy-6-methyl-pyrimidin-2-yl)aminocarbonyl]-2-nitrobenzenesulfonamide; N-[(4,6-dimethoxy-pyrimidin-2-yl)-aminocarbonyl]-2-methylthiobenzenesulfonamide; and 2-[[(4-chloro-6-methoxypyrimidine-2-yl)amino carbonyl]aminosulfonyl]benzoic acid, ethyl ester.

| Structure (SMILES) | resistance of industrial transformants to structurally related sulfonylurea growth inhibitors | growth of untransformed wild-type strains (30 μg/mL, ATCC 7754 and ATCC 4921, untransformed) |
| --- | --- | --- |
| CCOC(=O)c1ccccc1S(=O)(=O)NC(=O)Nc1nc(Cl)cc(OC)n1 [2-[[(4-chloro-6-methoxypyrimidine-2-yl)aminocarbonyl]aminosulfonyl]benzoic acid, ethyl ester] | resistant |  |
| COc1cc(OC)nc(NC(=O)NS(=O)(=O)c2ccccc2SC)n1 [N-[(4,6-dimethoxy-pyrimidin-2-yl)-aminocarbonyl]-2-methylthiobenzenesulfonamide] | resistant |  |
| COc1cc(C)nc(NC(=O)NS(=O)(=O)c2ccccc2[N+](=O)[O-])n1 [N-[(4-methoxy-6-methyl-pyrimidin-2-yl)aminocarbonyl]-2-nitrobenzenesulfonamide] | resistant |  |
| COC(=O)c1ccccc1S(=O)(=O)NC(=O)Nc1nc(C)cc(C)n1 [sulfometuron methyl] |  | completely inhibited |
